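Protocol summary: plate cells (96-well), add compound at 5 concentrations, incubate 48 h, interpolate endpoints linearly. Here, GI50 denotes the concentration required for 50% inhibition of growth.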 The source made the active and inactive calls. Cut-off read from the data, not from the text of the source: active = GI50 up to about 1.1 µM and inactive = higher.
Legend:
Assay in all cases: NCI anticancer screen, dose series, 48 h
DMS-273 = test system: DMS-273
KM-20L2 = test system: KM-20L2
M19-MEL = test system: M19-MEL
DMS-114 = test system: DMS-114
LXFL 529 = test system: LXFL 529
HOP-18 = test system: HOP-18
DLD-1 = test system: DLD-1
RXF 631 = test system: RXF 631
XF498 = test system: XF498

| SMILES | GI50 (DMS-273) | GI50 (KM-20L2) | GI50 (M19-MEL) | GI50 (DMS-114) | GI50 (LXFL 529) | GI50 (HOP-18) | GI50 (DLD-1) | GI50 (RXF 631) | GI50 (XF498) |
| --- | --- | --- | --- | --- | --- | --- | --- | --- | --- |
| O=C(NC(Cc1ccccc1)C(=O)CCl)OCc1ccccc1 (stereo unspecified) | 5.02 µM (inactive) | 7.69 µM (inactive) | 13.7 µM (inactive) | 1.22 µM (inactive) | 3.6 µM (inactive) | 11.7 µM (inactive) | 9.64 µM (inactive) | – | – |
| Cc1nc2c(=O)[nH]c(=O)n(C)c2[nH]c1=O.c1ccncc1 | > 100 µM (inactive) | > 100 µM (inactive) | > 100 µM (inactive) | – | > 100 µM (inactive) | – | > 100 µM (inactive) | – | – |
| c1ccc(-c2ccnc3c2ccc2c(-c4ccccc4)ccnc23)cc1 | 2.56 µM (inactive) | 3.73 µM (inactive) | 1.74 µM (inactive) | 0.382 µM (active) | 0.71 µM (active) | 2.34 µM (inactive) | 2.47 µM (inactive) | 0.604 µM (active) | – |
| O=C1C(=O)N(c2ccc(Cl)c(Cl)c2)C(=O)C(=O)C1c1nc2ccccc2o1 | 70.3 µM (inactive) | > 100 µM (inactive) | 58.7 µM (inactive) | – | 93.8 µM (inactive) | – | 59.2 µM (inactive) | 43.5 µM (inactive) | 51.5 µM (inactive) |
| COc1ccc(NN=C2C(=O)CCC2=O)cc1 | > 100 µM (inactive) | – | > 100 µM (inactive) | > 100 µM (inactive) | – | > 100 µM (inactive) | > 100 µM (inactive) | > 100 µM (inactive) | – |
| COCC(=O)[C@]1(O)Cc2c(O)c3c(c(O)c2[C@@H](OC2CC(N)C(O)C(C)O2)C1)C(=O)c1c(OC)cccc1C3=O (stereo partly specified) | 0.0391 µM (active) | 0.111 µM (active) | 0.0676 µM (active) | 0.0718 µM (active) | 0.0713 µM (active) | – | 0.0532 µM (active) | – | 0.0573 µM (active) |
| N#CCC(=O)N/N=C1/C(=O)N(c2cc(Cl)ccc2Cl)C(=O)C(=O)C1c1nc2ccccc2s1 (stereo unspecified) | > 100 µM (inactive) | > 100 µM (inactive) | 77.1 µM (inactive) | > 100 µM (inactive) | > 100 µM (inactive) | 72.9 µM (inactive) | > 100 µM (inactive) | 55.3 µM (inactive) | – |
| CN1CCCC2(CCCc3ccccc32)C1 (stereo unspecified) | > 100 µM (inactive) | > 100 µM (inactive) | > 100 µM (inactive) | > 100 µM (inactive) | > 100 µM (inactive) | – | > 100 µM (inactive) | > 100 µM (inactive) | – |
| COc1ccc(-c2onc(-c3c(C)cc(C)cc3C)c2C2=NCCN2)cc1 | – | 28.3 µM (inactive) | 86.5 µM (inactive) | – | > 100 µM (inactive) | 10.9 µM (inactive) | 74 µM (inactive) | 70.6 µM (inactive) | – |
| CCOC(=O)C1=C(Nc2ccc(Cl)c(Cl)c2)OC/C1=N\NC(=O)Cc1ccccc1 | > 100 µM (inactive) | > 100 µM (inactive) | > 100 µM (inactive) | > 100 µM (inactive) | > 100 µM (inactive) | 87.7 µM (inactive) | > 100 µM (inactive) | – | > 100 µM (inactive) |
| COc1cc2c(cc1OC)[C@@H](C(O)c1ccccc1)NCC2 (stereo partly specified) | > 100 µM (inactive) | > 100 µM (inactive) | > 100 µM (inactive) | > 100 µM (inactive) | > 100 µM (inactive) | – | > 100 µM (inactive) | > 100 µM (inactive) | > 100 µM (inactive) |
| COc1ccc(C2C(Cl)C(=O)N2NC(=O)Cc2ccccc2)cc1OC (stereo unspecified) | > 100 µM (inactive) | > 100 µM (inactive) | > 100 µM (inactive) | > 100 µM (inactive) | – | > 100 µM (inactive) | > 100 µM (inactive) | – | > 100 µM (inactive) |
| CCCCCCCCCCCCC(=O)CCCCC(=O)O | 33.4 µM (inactive) | – | 18.2 µM (inactive) | 18.8 µM (inactive) | 18 µM (inactive) | 16 µM (inactive) | 17.9 µM (inactive) | 18.7 µM (inactive) | – |

— ChEMBL document CHEMBL1201862, “PubChem BioAssay data set” (2004)
